Test results: publication PMC11124136, “New Thiazolidine-4-One Derivatives as SARS-CoV-2 Main Protease Inhibitors” (Pharmaceuticals, 2024)

Target: SARS-CoV-2 Mpro (Severe acute respiratory syndrome coronavirus 2, UniProt P0DTD1)
Assay: biochemical
Type: biochemical
Conditions: for SARS-CoV-2 Mpro inhibition, result in words: inactivity = IC50 > 30 μM; for IC50: FRET assay, concentration reducing Mpro activity by 50%, mean ± SD of three independent experiments, highest concentration tested 30 μM

Row | SMILES | SARS-CoV-2 Mpro inhibition, result in words | IC50
1 | O=C1CSC(c2ccc([N+](=O)[O-])cc2)N1CCc1ccccc1 (stereo not drawn) [Compound 4a, 2-(4-nitrophenyl)-3-(phenylethyl)-1,3-thiazolidin-4-one] | inactive | 
2 | O=C1CSC(c2ccc([N+](=O)[O-])cc2)N1CCc1ccccc1Cl (stereo not drawn) [Compound 4g] |  | 26 ± 4 µM
3 | COc1ccc(CCN2C(=O)CSC2c2ccc([N+](=O)[O-])cc2)cc1 (stereo not drawn) [Compound 4f] | inactive | > 30 µM
4 | O=C1CSC(c2ccc([N+](=O)[O-])cc2)N1CCc1cccc(F)c1 (stereo not drawn) [Compound 4c, 2-(4-nitrophenyl)-3-(3-fluorophenylethyl)-1,3-thiazolidin-4-one] | inactive | 
5 | O=C1CSC(c2ccc([N+](=O)[O-])cc2)N1CCc1ccc(Cl)cc1 (stereo not drawn) [Compound 4i] | inactive | > 30 µM
6 | COc1ccccc1CCN1C(=O)CSC1c1ccc([N+](=O)[O-])cc1 (stereo not drawn) [Compound 4e] | inactive | > 30 µM
